Laboratory results published in the NIST ThermoML archive (doi:10.1016/j.jct.2015.01.004).
“And” between values parts separate entries of the source, which are not always exact repeats. Equal entries are not always repeated.

Experiment: molar heat capacity at constant pressure; xn = mol fraction of the nth substance listed
Conditions: 100 kPa

[Si] [silicon] + [Li]
Conditions	molar heat capacity at constant pressure
213.05 K, Crystal of intercomponent compound 2, relaxation calorimeter, x2 = 0.804	19.41 J/K/mol
217.1 K, Crystal of intercomponent compound 2, relaxation calorimeter, x2 = 0.804	19.42 J/K/mol
217.11 K, Crystal of intercomponent compound 1, relaxation calorimetry, x2 = 0.81	19.04 J/K/mol
217.12 K, Crystal of intercomponent compound 2, relaxation calorimeter, x2 = 0.804	19.59 J/K/mol
220 K, Crystal of intercomponent compound 1, relaxation calorimetry + DSC, x2 = 0.81	19.27 J/K/mol
220 K, Crystal of intercomponent compound 2, relaxation calorimetry + DSC, x2 = 0.804	19.69 J/K/mol
221.11 K, Crystal of intercomponent compound 2, relaxation calorimeter, x2 = 0.804	19.62 J/K/mol
221.12 K, Crystal of intercomponent compound 1, relaxation calorimetry, x2 = 0.81	19.24 J/K/mol
221.13 K, Crystal of intercomponent compound 2, relaxation calorimeter, x2 = 0.804	19.84 J/K/mol
225.23 K, Crystal of intercomponent compound 2, relaxation calorimeter, x2 = 0.804	19.86 J/K/mol
225.24 K, Crystal of intercomponent compound 1, relaxation calorimetry, x2 = 0.81	19.46 J/K/mol
225.25 K, Crystal of intercomponent compound 2, relaxation calorimeter, x2 = 0.804	20.03 J/K/mol
229.28 K, Crystal of intercomponent compound 2, relaxation calorimeter, x2 = 0.804	20.05 J/K/mol
229.3 K, Crystal of intercomponent compound 1, relaxation calorimetry, x2 = 0.81	19.66 J/K/mol
229.31 K, Crystal of intercomponent compound 2, relaxation calorimeter, x2 = 0.804	20.22 J/K/mol
230 K, Crystal of intercomponent compound 1, relaxation calorimetry + DSC, x2 = 0.81	19.74 J/K/mol
230 K, Crystal of intercomponent compound 2, relaxation calorimetry + DSC, x2 = 0.804	20.16 J/K/mol
233.29 K, Crystal of intercomponent compound 2, relaxation calorimeter, x2 = 0.804	20.23 J/K/mol
233.3 K, Crystal of intercomponent compound 1, relaxation calorimetry, x2 = 0.81	19.83 J/K/mol
233.31 K, Crystal of intercomponent compound 2, relaxation calorimeter, x2 = 0.804	20.38 J/K/mol
237.4 K, Crystal of intercomponent compound 2, relaxation calorimeter, x2 = 0.804	20.4 J/K/mol
237.41 K, Crystal of intercomponent compound 1, relaxation calorimetry, x2 = 0.81	20 J/K/mol
237.43 K, Crystal of intercomponent compound 2, relaxation calorimeter, x2 = 0.804	20.54 J/K/mol
240 K, Crystal of intercomponent compound 1, relaxation calorimetry + DSC, x2 = 0.81	20.18 J/K/mol
240 K, Crystal of intercomponent compound 2, relaxation calorimetry + DSC, x2 = 0.804	20.58 J/K/mol
241.46 K, Crystal of intercomponent compound 2, relaxation calorimeter, x2 = 0.804	20.62 J/K/mol
241.48 K, Crystal of intercomponent compound 1, relaxation calorimetry, x2 = 0.81	20.17 J/K/mol
241.49 K, Crystal of intercomponent compound 2, relaxation calorimeter, x2 = 0.804	20.73 J/K/mol
245.47 K, Crystal of intercomponent compound 2, relaxation calorimeter, x2 = 0.804	20.87 J/K/mol
245.48 K, Crystal of intercomponent compound 1, relaxation calorimetry, x2 = 0.81	20.3 J/K/mol
245.5 K, Crystal of intercomponent compound 2, relaxation calorimeter, x2 = 0.804	20.93 J/K/mol
249.59 K, Crystal of intercomponent compound 2, relaxation calorimeter, x2 = 0.804	21 J/K/mol
249.6 K, Crystal of intercomponent compound 1, relaxation calorimetry, x2 = 0.81	20.44 J/K/mol
249.62 K, Crystal of intercomponent compound 2, relaxation calorimeter, x2 = 0.804	21.13 J/K/mol
250 K, Crystal of intercomponent compound 1, relaxation calorimetry + DSC, x2 = 0.81	20.59 J/K/mol
250 K, Crystal of intercomponent compound 2, relaxation calorimetry + DSC, x2 = 0.804	20.99 J/K/mol
253.66 K, Crystal of intercomponent compound 2, relaxation calorimeter, x2 = 0.804	21.14 J/K/mol
253.67 K, Crystal of intercomponent compound 1, relaxation calorimetry, x2 = 0.81	20.58 J/K/mol
253.68 K, Crystal of intercomponent compound 2, relaxation calorimeter, x2 = 0.804	21.27 J/K/mol
257.65 K, Crystal of intercomponent compound 2, relaxation calorimeter, x2 = 0.804	21.3 J/K/mol
257.66 K, Crystal of intercomponent compound 1, relaxation calorimetry, x2 = 0.81	20.7 J/K/mol
257.68 K, Crystal of intercomponent compound 2, relaxation calorimeter, x2 = 0.804	21.42 J/K/mol
260 K, Crystal of intercomponent compound 1, relaxation calorimetry + DSC, x2 = 0.81	20.98 J/K/mol
260 K, Crystal of intercomponent compound 2, relaxation calorimetry + DSC, x2 = 0.804	21.37 J/K/mol
261.78 K, Crystal of intercomponent compound 1, relaxation calorimetry, x2 = 0.81	20.8 J/K/mol
261.78 K, Crystal of intercomponent compound 2, relaxation calorimeter, x2 = 0.804	21.42 J/K/mol
261.79 K, Crystal of intercomponent compound 2, relaxation calorimeter, x2 = 0.804	21.54 J/K/mol
265.83 K, Crystal of intercomponent compound 2, relaxation calorimeter, x2 = 0.804	21.55 J/K/mol
265.84 K, Crystal of intercomponent compound 1, relaxation calorimetry, x2 = 0.81	20.92 J/K/mol
265.86 K, Crystal of intercomponent compound 2, relaxation calorimeter, x2 = 0.804	21.64 J/K/mol
269.82 K, Crystal of intercomponent compound 2, relaxation calorimeter, x2 = 0.804	21.67 J/K/mol
269.85 K, Crystal of intercomponent compound 1, relaxation calorimetry, x2 = 0.81	21.06 J/K/mol
269.85 K, Crystal of intercomponent compound 2, relaxation calorimeter, x2 = 0.804	21.75 J/K/mol
270 K, Crystal of intercomponent compound 1, relaxation calorimetry + DSC, x2 = 0.81	21.36 J/K/mol
270 K, Crystal of intercomponent compound 2, relaxation calorimetry + DSC, x2 = 0.804	21.73 J/K/mol
273.88 K, Crystal of intercomponent compound 2, relaxation calorimeter, x2 = 0.804	21.84 J/K/mol
273.9 K, Crystal of intercomponent compound 1, relaxation calorimetry, x2 = 0.81	21.15 J/K/mol
273.91 K, Crystal of intercomponent compound 2, relaxation calorimeter, x2 = 0.804	21.9 J/K/mol
278.02 K, Crystal of intercomponent compound 1, relaxation calorimetry, x2 = 0.81	21.25 J/K/mol
278.02 K, Crystal of intercomponent compound 2, relaxation calorimeter, x2 = 0.804	21.93 J/K/mol
278.04 K, Crystal of intercomponent compound 2, relaxation calorimeter, x2 = 0.804	22 J/K/mol
280 K, Crystal of intercomponent compound 1, relaxation calorimetry + DSC, x2 = 0.81	21.72 J/K/mol
280 K, Crystal of intercomponent compound 2, relaxation calorimetry + DSC, x2 = 0.804	22.09 J/K/mol
282.07 K, Crystal of intercomponent compound 2, relaxation calorimeter, x2 = 0.804	22.06 J/K/mol
282.08 K, Crystal of intercomponent compound 1, relaxation calorimetry, x2 = 0.81	21.37 J/K/mol
282.09 K, Crystal of intercomponent compound 2, relaxation calorimeter, x2 = 0.804	22.11 J/K/mol
284.87 K, Crystal of intercomponent compound 1, Small sample (50 mg) DSC, x2 = 0.81	22.13 J/K/mol and 22.16 J/K/mol
284.87 K, Crystal of intercomponent compound 2, Small sample (50 mg) DSC, x2 = 0.804	22.41 J/K/mol
286.06 K, Crystal of intercomponent compound 2, relaxation calorimeter, x2 = 0.804	22.16 J/K/mol
286.08 K, Crystal of intercomponent compound 1, relaxation calorimetry, x2 = 0.81	21.42 J/K/mol
286.08 K, Crystal of intercomponent compound 2, relaxation calorimeter, x2 = 0.804	22.26 J/K/mol
290 K, Crystal of intercomponent compound 1, relaxation calorimetry + DSC, x2 = 0.81	22.08 J/K/mol
290 K, Crystal of intercomponent compound 2, relaxation calorimetry + DSC, x2 = 0.804	22.45 J/K/mol
290.12 K, Crystal of intercomponent compound 1, relaxation calorimetry, x2 = 0.81	21.52 J/K/mol
290.13 K, Crystal of intercomponent compound 2, relaxation calorimeter, x2 = 0.804	22.36 J/K/mol
294.26 K, Crystal of intercomponent compound 1, relaxation calorimetry, x2 = 0.81	21.6 J/K/mol
294.27 K, Crystal of intercomponent compound 2, relaxation calorimeter, x2 = 0.804	22.5 J/K/mol
294.79 K, Crystal of intercomponent compound 2, Small sample (50 mg) DSC, x2 = 0.804	22.86 J/K/mol
294.8 K, Crystal of intercomponent compound 1, Small sample (50 mg) DSC, x2 = 0.81	22.38 J/K/mol and 22.54 J/K/mol
298.15 K, Crystal of intercomponent compound 1, relaxation calorimetry + DSC, x2 = 0.81	22.38 J/K/mol
